Experiments:
[1] = Radioactivity distribution in blood components after i.v. injection in healthy mice; format: in vivo; conditions: for Proportion of intact tracer in plasma: radio-HPLC
Method: To measure the radioactivity binding to blood cells, the blood obtained by cardiac puncture was placed into a lithium heparin tube, mixed according to the manufacturer’s instructions, and placed on ice. The blood sample was centrifuged at 4 °C for 5 min at 2118 × g. The plasma was separated by pipetting, and blood cells and plasma radioactivities were measured with a 1480 Wizard gamma counter (PerkinElmer/Wallac, Turku, Finland).
To determine the radioactivity portion bound to plasma proteins, plasma was mixed with an equal volume of acetonitrile and centrifuged at 14000 × g for 2 min at r.t. The radioactivity of both the supernatant and the protein pellet was measured with Wizard.
To determine the portion of intact tracer in plasma, a sample of deproteinized plasma supernatant was diluted with 0.1% TFA in water and analyzed with radio-HPLC.[60]

[2] = Ex vivo biodistribution in healthy Balb/cAnNrj mice
Method: (§1) Animal studies were approved by the national Project Authorization Board in Finland (licenses: ESAVI/12132/04.10.07/2017 and ESAVI/8648/2020) and were carried out in compliance with EU Directive 2010/EU/63 on the protection of animals used for scientific purposes. Healthy female Balb/cAnNrj mice (9–14 weeks old, 19 weeks old for fasting studies) were used for experiments with [^18F]FDG-Tz. Female Rj:Athymic-Foxn1^nu/nu mice (8–10 weeks old) bearing subcutaneous HER2-expressing HCC1954 tumors were used for pretargeted and control preclicked experiments with [^18F]TCO-MSNA, detailed information for the mice preparation was described earlier.[59] Animals were housed in individually ventilated cages under a 12 h light/dark cycle with ad libitum access to water and food unless otherwise stated. Animals were anesthetized with isoflurane (induction 4–5%, maintenance 1.5–2.5%, 0.4 L/min O2) and sacrificed by cervical dislocation after applying cardiac puncture for blood collection.
For [^18F]FDG-Tz ex vivo evaluation, the mice were sacrificed at 15 (n = 6), 30 (n = 4), and 60 min (n = 2) postinjection. [^18F]FDG-Tz distribution at 15 min postinjection was also studied in animals after fasting (n = 3, 4 h fasting prior to injection, water available ad libitum). Radiolabeled compound was administrated via the tail vein (1.8–11.4 MBq in 50–170 μL). For all experiments involving MSNA ex vivo measurements were performed after 60 min PET/CT imaging.
After sacrifice, tissue samples from organs of interest were dissected and weighed. Radioactivity was measured with a gamma counter (Triathler 3″; Hidex, Turku, Finland); the percentage injected radioactivity dose per gram of tissue (%ID/g) was calculated, corrected with the remaining radioactivity in the cannula, tail, and the syringe and decay-corrected to the time of injection.

[3] = In vivo dynamic PET/CT imaging in healthy Balb/cAnNrj mice; conditions: dynamic PET
Method: as §1
For in vivo [^18F]FDG-Tz studies, four mice were injected with 4.0–4.8 MBq in 50–80 μL volume via the tail vein. Animals were imaged with Molecubes β-cube (PET) and X-cube (CT) (MOLECUBES NV, Ghent, Belgium) for 60 min and reconstructed into time frames 30 × 10, 15 × 60, 4 × 300 s, and 2 × 600 s. For pretargeted experiments as well as control imaging with preclicked [^18F]TCO-MSNA, Inveon Multimodality PET/CT (Siemens Medical Solutions, Knoxville, TN, USA) was used to perform dynamic PET with 6 × 10, 4 × 60, and 11 × 300 s time frames. For pretargeted imaging, TCO-MSNA (50 μL, 2.5 nmol of TCO) was injected 20 min prior to [^18F]FDG-Tz (63 ± 17 μL) administration via the tail vein. For all experiments two animals were imaged at the same time under isoflurane anesthesia. Mice were sacrificed immediately after imaging for ex vivo evaluation.
Image analysis was performed with Carimas software (version 2.10, Turku PET Centre, Turku, Finland). CT scans were utilized as an anatomical reference combined with the radioactivity signal from PET images. Regions of interest (ROIs) within the selected organs were defined in three dimensions. Blood pool results were obtained from the heart left ventricle cavity; tumor ROIs were drawn excluding the fluid-filled tumor core (Figure S13). Standardized uptake values (SUV) were calculated, corrected with the remaining radioactivity in the cannula, tail, and syringe, and decay-corrected to the time of injection.

[4] = system: HER2-expressing HCC1954 tumors; experiment: PET/CT imaging (pretargeted, preclicked, tracer alone) in HCC1954 tumor-bearing mice; format: in vivo; conditions: HCC1954 tumor-bearing female mice, 60 min postinjection
Method: as §1, with “collection. […]” for “collection.”
Image analysis was performed with Carimas software (version 2.10, Turku PET Centre, Turku, Finland). CT scans were utilized as an anatomical reference combined with the radioactivity signal from PET images. […] Standardized uptake values (SUV) were calculated, corrected with the remaining radioactivity in the cannula, tail, and syringe, and decay-corrected to the time of injection. […]

Blood cell binding of radioactivity ([1]; 15 min postinjection): 37.6% ± 3.0 | Plasma protein binding of radioactivity ([1]; 15 min postinjection): 9.1% ± 3.5 | Blood cell binding of radioactivity ([1]; 60 min postinjection): 58.1% | Plasma protein binding of radioactivity ([1]; 60 min postinjection): 22.7% | Proportion of intact tracer in plasma ([1]; 60 min postinjection): 52% | Proportion of intact tracer in plasma ([1]; first time point (15 min, n = 3)): 93.7% ± 5.1 | Biodistribution difference between fasted and nonfasted animals ([2]; 15 min postinjection, 4 h fasting): no statistically significant difference | Organ accumulation in awake versus isoflurane anesthetized animals ([2]; 60 min after i.v. injection): trend of lower accumulation | Blood radioactivity ([2]; i.v., 60 min postinjection): 0.9 ± 0.3 %ID/g | Brain uptake ([2]; i.v., 60 min postinjection): 0.08 ± 0.03 %ID/g | Gallbladder radioactivity ([2]; i.v., 60 min postinjection): 7.0 ± 0.7 %ID/g | Kidneys radioactivity ([2]; i.v., 60 min postinjection): 1.2 ± 0.4 %ID/g | Liver radioactivity ([2]; i.v., 60 min postinjection): 3.2 ± 1.0 %ID/g | Tibia bone radioactivity (defluorination) ([2]; i.v., 60 min postinjection): 0.26 ± 0.04 %ID/g | Heart SUV ([3]; 0.6 min): 5.06 ± 4.25 SUV | Blood SUV ([3]; 0.8 min): 5.26 ± 2.69 SUV | Brain SUVpeak ([3]; 0.8 min): 0.33 ± 0.20 SUV | Liver SUV ([3]; 4.5 min): 5.63 ± 1.11 SUV | Blood SUV ([3]; 60 min): 0.43 ± 0.06 SUV | Brain SUV ([3]; 60 min): 0.05 ± 0.01 SUV | Heart SUV ([3]; 60 min): 0.41 ± 0.05 SUV | Liver SUV ([3]; 60 min): 2.00 ± 0.57 SUV | Tumor SUV [4]: 0.16 ± 0.04 SUV
Structure (SMILES): O=C(CCON=C[C@H]([18F])[C@@H](O)[C@H](O)[C@H](O)CO)NCc1ccc(-c2nncnn2)cc1 [[^18F]FDG-Tz]
